Data reported in patent US20120029190A1, “COMPOUNDS FOR TREATING DISORDERS MEDIATED BY METABOTROPIC GLUTAMATE RECEPTOR 5, AND METHODS OF USE THEREOF” (priority 2009, published 2012).

The compounds below were run against T1, human recombinant mGluR5 receptor (Homo sapiens, UniProt P41594) (assay: mGluR5 in vitro functional assay (aequorin cell line, inhibition of glutamate EC80 response)). Conditions: Table 1; aequorin cell line expressing human mGluR5, reference agonist glutamate at EC80; obtained in duplicate; read-out: IC50.
T1 construct: expressed in transfected cells; expression induced with doxycycline
T1 sequence (P41594 21-1212): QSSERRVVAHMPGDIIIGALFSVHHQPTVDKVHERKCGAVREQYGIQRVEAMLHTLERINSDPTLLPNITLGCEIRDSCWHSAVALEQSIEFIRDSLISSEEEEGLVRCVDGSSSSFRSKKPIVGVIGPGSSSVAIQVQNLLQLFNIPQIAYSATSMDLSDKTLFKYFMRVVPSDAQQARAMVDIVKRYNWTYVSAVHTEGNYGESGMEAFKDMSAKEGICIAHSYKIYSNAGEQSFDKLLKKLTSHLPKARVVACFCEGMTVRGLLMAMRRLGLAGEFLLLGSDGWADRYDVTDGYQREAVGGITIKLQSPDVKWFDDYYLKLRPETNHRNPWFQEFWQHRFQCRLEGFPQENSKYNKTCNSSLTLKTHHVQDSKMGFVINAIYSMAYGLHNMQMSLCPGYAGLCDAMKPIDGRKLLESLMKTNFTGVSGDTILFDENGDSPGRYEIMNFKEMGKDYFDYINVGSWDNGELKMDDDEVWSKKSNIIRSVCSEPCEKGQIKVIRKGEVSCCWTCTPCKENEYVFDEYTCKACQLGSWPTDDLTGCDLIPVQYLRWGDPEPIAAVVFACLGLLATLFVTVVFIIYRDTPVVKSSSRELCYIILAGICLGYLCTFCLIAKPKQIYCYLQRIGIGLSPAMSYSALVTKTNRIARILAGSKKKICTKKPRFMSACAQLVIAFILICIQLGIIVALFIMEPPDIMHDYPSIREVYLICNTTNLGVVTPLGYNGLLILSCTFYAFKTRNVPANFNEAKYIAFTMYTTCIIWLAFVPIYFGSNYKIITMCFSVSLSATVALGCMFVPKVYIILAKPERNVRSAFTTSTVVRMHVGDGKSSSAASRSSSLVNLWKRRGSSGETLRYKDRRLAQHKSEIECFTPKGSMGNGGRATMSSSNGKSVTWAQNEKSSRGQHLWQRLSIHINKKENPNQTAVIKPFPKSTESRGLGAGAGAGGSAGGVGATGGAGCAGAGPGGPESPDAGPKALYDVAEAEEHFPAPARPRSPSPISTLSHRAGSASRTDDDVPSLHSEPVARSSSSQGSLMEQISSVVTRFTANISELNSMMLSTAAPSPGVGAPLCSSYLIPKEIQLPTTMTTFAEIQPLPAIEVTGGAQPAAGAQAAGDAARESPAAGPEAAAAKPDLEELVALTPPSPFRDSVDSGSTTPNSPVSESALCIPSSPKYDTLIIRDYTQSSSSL
Type: cell-based
Method: B. mGluR5 In Vitro Functional Assay
The functional assay utilized an aequorin cell line expressing human recombinant mGluR5 receptor, an inducible cell line that expresses the human receptor under the control of a promoter induced by doxycycline.
mGluR5 cells in mid-log phase, grown 18 hours prior to the test in antibiotic-free media supplemented with doxycycline (600 ng/mL), were detached by gentle flushing with PBS-EDTA ([…]). The cells were recovered by centrifugation and resuspended in assay buffer (HBSS, […], 3 ug/mL glutamate-pyruvate transaminase, […] MEM sodium pyruvate, 0.1% BSA protease-free). Cells were incubated at room temperature for at least 4 hours with Coelenterazine h (Molecular Probes). The cell suspension (60 uL) containing the test compound was mixed with a solution of reference agonist (30 uL) at its EC80, following an incubation of 3 min. after the first injection. The resulting emission of light was recorded using a Hamamatsu Functional Drug Screening System 6000 (FDSS 6000). To standardize the emission of recorded light (determination of the “100% signal’) across plates and across different experiments, some of the wells contained 100 uM digitonin or a saturating concentration (20 mM) of ATP. Plates also contained the reference agonist (glutamate) at a concentration equivalent to the EC80 obtained during assay validation. Percentages of inhibition were calculated on the basis of the activation induced by the reference agonist at a concentration equal to the EC80. Dose-response data were analyzed with XLFit (IDBS) software using nonlinear regression applied to a sigmoidal dose-response model.

Row | IC50 [µM] | Structure (SMILES)
1 | < 1 | CC1CN(c2cc(F)cc(C#N)c2)Cc2oc(-c3ccccn3)nc21 (racemic) [Compound 81, (+/−)-3-Fluoro-5-(7-methyl-2-(pyridin-2-yl)-6,7-dihydrooxazolo[5,4-c]pyridin-5(4H)-yl)benzonitrile]
2 | < 1 | CC1CN(c2cc(F)cc(C#N)c2)Cc2nc(-c3ccccn3)oc21 (racemic) [Compound 82, (+/−)-3-Fluoro-5-(7-methyl-2-(pyridin-2-yl)-6,7-dihydrooxazolo[4,5-c]pyridin-5(4H)-yl)benzonitrile]
3 | < 1 | N#Cc1cccnc1N1CCc2oc(-c3ccccn3)nc2C1 [Compound 28, 2-(2-(Pyridin-2-yl)-6,7-dihydrooxazolo[4,5-c]pyridin-5(4H)-yl)nicotinonitrile]
4 | < 1 | N#Cc1cccc(N2CCc3oc(-c4ccccn4)nc3C2)n1 [Compound 29, 6-(2-(Pyridin-2-yl)-6,7-dihydrooxazolo[4,5-c]pyridin-5(4H)-yl)picolinonitrile]
5 | < 1 | N#Cc1cc(F)cc(N2CCc3oc(-c4ccccn4)nc3C2)c1 [Compound 30, 3-Fluoro-5-(2-(pyridin-2-yl)-6,7-dihydrooxazolo[4,5-c]pyridin-5(4H)-yl)benzonitrile]
6 | < 1 | Fc1cc(F)cc(N2CCc3oc(-c4ccccn4)nc3C2)c1 [Compound 31, 5-(3,5-Difluorophenyl)-2-(pyridin-2-yl)-4,5,6,7-tetrahydrooxazolo[4,5-c]pyridine]
7 | < 1 | N#Cc1cc(N2CCc3oc(-c4ccccn4)nc3C2)cc(C(F)(F)F)c1 [Compound 32, 3-(2-(Pyridin-2-yl)-6,7-dihydrooxazolo[4,5-c]pyridin-5(4H)-yl)-5-(trifluoromethyl)benzonitrile]
8 | < 1 | N#Cc1cc(F)cc(N2CCc3oc(-c4ccc(F)cn4)nc3C2)c1 [Compound 33, 3-Fluoro-5-(2-(5-fluoropyridin-2-yl)-6,7-dihydrooxazolo[4,5-c]pyridin-5(4H)-yl)benzonitrile]
9 | < 1 | N#Cc1cccc(CN2CCc3oc(-c4ccccn4)nc3C2)c1 [Compound 34]

More lines, now with the values behind:

Row | Structure (SMILES) | IC50 [µM]
10 | N#Cc1cccc(N2CCc3nc(-c4ccccn4)oc3C2)c1 [Compound 1, 3-(2-(Pyridin-2-yl)-6,7-dihydrooxazolo[5,4-c]pyridin-5(4H)-yl)benzonitrile] | < 1
11 | c1ccc(-c2nc3c(o2)CN(c2ccccn2)CC3)nc1 [Compound 2, 2,5-Di(pyridin-2-yl)-4,5,6,7-tetrahydro-oxazolo[5,4-c]pyridine] | < 10
12 | N#Cc1cccnc1N1CCc2nc(-c3ccccn3)oc2C1 [Compound 3, 2-(2-(Pyridin-2-yl)-6,7-dihydrooxazolo[5,4-c]pyridin-5(4H)-yl)nicotinonitrile] | < 1
13 | N#Cc1cc(F)cc(N2CCc3nc(-c4ccccn4)oc3C2)c1 [Compound 4, 3-Fluoro-5-(2-(pyridin-2-yl)-6,7-dihydrooxazolo[5,4-c]pyridin-5(4H)-yl)benzonitrile] | < 1
14 | c1ccc(-c2nc3c(o2)CN(c2cccnc2)CC3)nc1 [Compound 5, 2-(Pyridin-2-yl)-5-(pyridin-3-yl)-4,5,6,7-tetrahydrooxazolo[5,4-c]pyridine] | > 10
15 | N#Cc1cccc(N2CCc3nc(-c4ccccn4)oc3C2)n1 [Compound 6, 6-(2-(Pyridin-2-yl)-6,7-dihydrooxazolo[5,4-c]pyridin-5(4H)-yl)picolinonitrile] | < 10
16 | N#Cc1ccnc(N2CCc3nc(-c4ccccn4)oc3C2)c1 [Compound 7, 2-(2-(Pyridin-2-yl)-6,7-dihydrooxazolo[5,4-c]pyridin-5(4H)-yl)isonicotinonitrile] | < 10
17 | N#Cc1cncc(N2CCc3nc(-c4ccccn4)oc3C2)c1 [Compound 8, 5-(2-(Pyridin-2-yl)-6,7-dihydrooxazolo[5,4-c]pyridin-5(4H)-yl)nicotinonitrile] | < 10
18 | N#Cc1cc(N2CCc3nc(-c4ccccn4)oc3C2)ccn1 [Compound 9, 4-(2-(Pyridin-2-yl)-6,7-dihydrooxazolo[5,4-c]pyridin-5(4H)-yl)picolinonitrile] | < 10
19 | N#Cc1cc(Br)cc(N2CCc3nc(-c4ccccn4)oc3C2)c1 [Compound 10, 3-Bromo-5-(2-(pyridin-2-yl)-6,7-dihydrooxazolo[5,4-c]pyridin-5(4H)-yl)benzonitrile] | < 1
20 | N#Cc1cc(N2CCOCC2)cc(N2CCc3nc(-c4ccccn4)oc3C2)c1 [Compound 11, 3-Morpholino-5-(2-(pyridin-2-yl)-6,7-dihydrooxazolo[5,4-c]pyridin-5(4H)-yl)benzonitrile] | > 10
21 | N#Cc1cccc(C(=O)N2CCc3nc(-c4ccccn4)oc3C2)c1 [Compound 12, 3-(2-(Pyridin-2-yl)-4,5,6,7-tetrahydrooxazolo[5,4-c]pyridine-5-carbonyl)benzonitrile] | < 10
22 | N#Cc1cccc(CN2CCc3nc(-c4ccccn4)oc3C2)c1 [Compound 13] | < 10
23 | Fc1cc(-c2ccncc2)cc(N2CCc3nc(-c4ccccn4)oc3C2)c1 [Compound 14, 5-(3-Fluoro-5-(pyridin-4-yl)phenyl)-2-(pyridin-2-yl)-4,5,6,7-tetrahydrooxazolo[5,4-c]pyridine] | < 10
24 | N#Cc1cccc(N2CCc3nc(-c4cccc[n+]4[O-])oc3C2)c1 [Compound 15, 2-(5-(3-Cyanophenyl)-4,5,6,7-tetrahydrooxazolo[5,4-c]pyridin-2-yl)pyridine 1-oxide] | < 1
25 | N#Cc1cc(C#N)cc(N2CCc3nc(-c4ccccn4)oc3C2)c1 [Compound 16, 5-(2-(Pyridin-2-yl)-6,7-dihydrooxazolo[5,4-c]pyridin-5(4H)-yl)isophthalonitrile] | < 10
26 | Fc1cc(F)cc(N2CCc3nc(-c4ccccn4)oc3C2)c1 [Compound 17, 5-(3,5-Difluorophenyl)-2-(pyridin-2-yl)-4,5,6,7-tetrahydrooxazolo[5,4-c]pyridine] | < 1
27 | c1ccc(-c2nc3c(o2)CN(c2cnccn2)CC3)cc1 [Compound 18, 2-Phenyl-5-(pyrazin-2-yl)-4,5,6,7-tetrahydrooxazolo-[5,4-c]pyridine] | < 10
28 | N#Cc1cccnc1N1CCc2nc(-c3ccccc3)oc2C1 [Compound 19, 2-(2-Phenyl-6,7-dihydrooxazolo[5,4-c]pyridin-5(4H)-yl)nicotinonitrile] | < 10
29 | c1ccc(-c2nc3c(o2)CN(c2ccccn2)CC3)cc1 [Compound 20, 2-Phenyl-5-(pyridin-2-yl)-4,5,6,7-tetrahydrooxazolo-[5,4-c]pyridine] | > 10
30 | N#Cc1cc(F)cc(N2CCc3nc(-c4ccccc4)oc3C2)c1 [Compound 21, 3-Fluoro-5-(2-phenyl-6,7-dihydrooxazolo[5,4-c]pyridin-5(4H)-yl)benzonitrile] | < 1
31 | c1ccc(-c2nc3c(o2)CN(c2nccs2)CC3)nc1 [Compound 22, 2-(Pyridin-2-yl)-5-(thiazol-2-yl)-4,5,6,7-tetrahydrooxazolo[5,4-c]pyridine] | < 10
32 | N#Cc1cccc(N2CCc3oc(-c4ccccn4)nc3C2)c1 [Compound 23, 3-(2-(Pyridin-2-yl)-6,7-dihydrooxazolo[4,5-c]pyridin-5(4H)-yl)benzonitrile] | < 1
33 | N#Cc1ccnc(N2CCc3oc(-c4ccccn4)nc3C2)c1 [Compound 24, 2-(2-(Pyridin-2-yl)-6,7-dihydrooxazolo[4,5-c]pyridin-5(4H)-yl)isonicotinonitrile] | < 1
34 | N#Cc1cncc(N2CCc3oc(-c4ccccn4)nc3C2)c1 [Compound 25, 5-(2-(Pyridin-2-yl)-6,7-dihydrooxazolo[4,5-c]pyridin-5(4H)-yl)nicotinonitrile] | < 1
35 | N#Cc1cc(N2CCc3oc(-c4ccccn4)nc3C2)ccn1 [Compound 26, 4-(2-(Pyridin-2-yl)-6,7-dihydrooxazolo[4,5-c]pyridin-5(4H)-yl)picolinonitrile] | < 1
36 | c1ccc(-c2nc3c(o2)CCN(c2ccccn2)C3)nc1 [Compound 27, 2,5-Di(pyridin-2-yl)-4,5,6,7-tetrahydrooxazolo[4,5-c]pyridine] | < 1

Same assay, conditions: Table 2; aequorin cell line expressing human mGluR5, reference agonist glutamate at EC80; obtained in duplicate; read-out: IC50

Row | IC50 [µM] | Structure (SMILES)
37 | < 1 | Clc1ccccc1C1CCc2oc(-c3ccccn3)nc2C1 (racemic) [Compound 219, 5-(2-Chlorophenyl)-2-(pyridin-2-yl)-4,5,6,7-tetrahydrobenzo[d]oxazole]
38 | < 1 | Fc1ccc(C2CCc3oc(-c4ccccn4)nc3C2)c(Cl)c1 (racemic) [Compound 223, 5-(2-Chloro-4-fluorophenyl)-2-(pyridin-2-yl)-4,5,6,7-tetrahydrobenzo[d]oxazole]
39 | < 1 | Clc1ccccc1[C@@H]1CCc2oc(-c3ccccn3)nc2C1 (single isomer, unassigned) [Compound 220]
40 | < 1 | Clc1ccccc1[C@H]1CCc2oc(-c3ccccn3)nc2C1 (single isomer, unassigned) [Compound 221]
41 | < 1 | Fc1ccc([C@@H]2CCc3oc(-c4ccccn4)nc3C2)c(Cl)c1 (single isomer, unassigned) [Compound 224]
42 | < 1 | Fc1ccc([C@H]2CCc3oc(-c4ccccn4)nc3C2)c(Cl)c1 (single isomer, unassigned) [Compound 225]
